{
  "source": "patent US20070203073A1",
  "about": "(priority 2005, published 2007)",
  "key": {"SARS-CoV S protein [1]": {"test_system": "SARS-CoV S protein", "assay": "microbe, parasite or virus in culture", "assay_type": "cell-based"}, "VSV-G": {"test_system": "VSV-G", "assay_type": "cell-based"}, "MLV-Amphotropic Env": {"test_system": "MLV-Amphotropic Env", "assay_type": "cell-based"}, "EboV GP glycoprotein": {"test_system": "EboV GP glycoprotein", "assay_type": "cell-based"}, "human cathepsin L": {"biological_target": "human cathepsin L (Homo sapiens, UniProt P07711)", "sequence (P07711 114-333)": "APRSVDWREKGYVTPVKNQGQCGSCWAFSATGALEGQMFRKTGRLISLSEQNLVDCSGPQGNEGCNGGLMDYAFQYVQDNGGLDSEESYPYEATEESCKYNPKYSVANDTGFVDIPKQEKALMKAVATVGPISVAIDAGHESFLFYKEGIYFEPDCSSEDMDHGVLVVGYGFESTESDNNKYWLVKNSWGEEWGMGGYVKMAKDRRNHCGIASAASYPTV", "assay_type": "biochemical"}, "thrombin": {"biological_target": "thrombin", "conditions": "read-out: Ki, inhibition of thrombin; cited from earlier work"}, "caspase 6 [2]": {"biological_target": "T1, caspase 6 (Homo sapiens, UniProt P55212)", "T1 sequence (P55212 24-179 limits assumed)": "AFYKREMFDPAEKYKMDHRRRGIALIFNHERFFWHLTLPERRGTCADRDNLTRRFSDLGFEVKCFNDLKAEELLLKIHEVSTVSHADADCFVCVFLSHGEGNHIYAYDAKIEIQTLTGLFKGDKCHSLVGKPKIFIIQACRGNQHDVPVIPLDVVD", "T1 sequence (P55212 194-293 limits assumed)": "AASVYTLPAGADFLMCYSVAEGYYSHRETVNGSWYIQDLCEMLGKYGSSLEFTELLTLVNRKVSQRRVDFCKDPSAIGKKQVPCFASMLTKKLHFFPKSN", "assay_type": "biochemical"}, "caspase 2 [3]": {"biological_target": "T2, caspase 2 (Homo sapiens, UniProt P42575)", "T2 sequence (P42575 170-325 limits assumed)": "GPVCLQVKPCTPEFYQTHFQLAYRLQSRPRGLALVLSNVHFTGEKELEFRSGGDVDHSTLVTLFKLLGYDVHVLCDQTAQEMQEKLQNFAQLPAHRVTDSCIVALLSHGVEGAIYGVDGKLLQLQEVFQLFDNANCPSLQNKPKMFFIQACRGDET", "T2 sequence (P42575 348-452 limits assumed)": "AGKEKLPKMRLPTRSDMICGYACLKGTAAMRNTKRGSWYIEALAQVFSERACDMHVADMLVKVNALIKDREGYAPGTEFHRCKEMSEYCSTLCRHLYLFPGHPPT", "assay_type": "biochemical"}, "caspase 4 [4]": {"biological_target": "T3, caspase 4 (Homo sapiens, UniProt P49662)", "T3 sequence (P49662 81-270 limits assumed)": "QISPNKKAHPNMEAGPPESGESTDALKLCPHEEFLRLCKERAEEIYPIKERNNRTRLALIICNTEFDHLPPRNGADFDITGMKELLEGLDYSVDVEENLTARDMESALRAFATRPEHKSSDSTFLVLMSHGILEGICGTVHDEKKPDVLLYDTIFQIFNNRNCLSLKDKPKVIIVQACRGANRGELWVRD", "T3 sequence (P49662 290-377 limits assumed)": "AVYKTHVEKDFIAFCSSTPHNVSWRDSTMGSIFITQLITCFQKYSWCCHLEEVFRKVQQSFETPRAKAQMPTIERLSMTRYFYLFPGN", "assay_type": "biochemical"}, "caspase 2 [5]": {"biological_target": "T2, caspase 2", "assay": "biochemical"}, "caspase 4 [6]": {"biological_target": "T3, caspase 4", "assay": "biochemical"}, "caspase 6 [7]": {"biological_target": "T1, caspase 6", "assay": "biochemical"}, "SARS-CoV (strain Tor2)": {"test_system": "SARS-CoV (strain Tor2)", "assay_type": "cell-based"}, "SARS-CoV S protein [8]": {"test_system": "SARS-CoV S protein", "assay_type": "cell-based"}, "ASLV-A Env": {"test_system": "ASLV-A Env", "assay_type": "cell-based"}, "[9]": {"conditions": "IC50 against the three caspases (range stated for all)"}},
  "note": "“Also recorded” adds a separate entry of the source. Where a SMILES comes first, the peptide text is derived from it. [ ]: non-standard residue; d: D form. The star is where a group is joined. Sta = CC(C)C[C@H](N)[C@@H](O)CC(=O)O; Isovaleryl = CC(C)CC(=O)*; Cbz = O=C(OCc1ccccc1)*; CH2F = FC*",
  "data": [
    {"molecule": "CCCNC(=O)[C@H]1O[C@@H]1C(=O)N[C@H](C(=O)N1CCC[C@H]1C(=O)O)[C@@H](C)CC", "note": "[CA-074]", "values": [
      {"measurement": "effect on infection of HIV-luc(SARS S)", "setting": "SARS-CoV S protein [1]", "value": "did not dramatically affect infection"},
      {"measurement": "effect on infection of HIV-luc(VSV-G)", "setting": "VSV-G", "value": "did not dramatically affect infection"}
    ]},
    {"molecule": "CC(C)[C@H](NC(=O)OCc1ccccc1)C(=O)N[C@H](C=O)Cc1ccccc1", "note": "[MDL 28170, Z-Val-Phe-CHO] (Cbz-Val-Phe-aldehyde)", "values": [
      {"measurement": "effect on SARS CoV S pseudotype entry/infection", "setting": "SARS-CoV S protein [1]", "value": "inhibits entry; also recorded: potently and specifically inhibits pseudotype infection"},
      {"measurement": "IC50", "setting": "SARS-CoV S protein [1]; read-out: IC50, pseudotype virion entry into cells", "value": "~0.1", "unit": "µM"},
      {"measurement": "effect on VSV pseudotype entry", "setting": "VSV-G", "value": "not inhibited"},
      {"measurement": "effect on MLV pseudotype entry", "setting": "MLV-Amphotropic Env", "value": "not inhibited"},
      {"measurement": "effect on EboV GP pseudotype entry/infection", "setting": "EboV GP glycoprotein", "value": "inhibits entry; also recorded: potently and specifically inhibits pseudotype infection"},
      {"measurement": "hit in cathepsin L microarray screen", "setting": "human cathepsin L", "value": "inhibitors and hits"}
    ]},
    {"molecule": "CC(C)C[C@H](NC(=O)[C@H](CC(C)C)NC(=O)[C@H](CC(C)C)NC(=O)OCc1ccccc1)C(=O)CF", "note": "[Z-LLL-FMK, Z-leu-leu-leu-fluoromethyl ketone] (Cbz-Leu-Leu-Leu-CH2F)", "values": [
      {"measurement": "effect on infection of HIV-luc(SARS S)", "setting": "SARS-CoV S protein [1]", "value": "efficiently inhibited infection"},
      {"measurement": "effect on infection of HIV-luc(VSV-G)", "setting": "VSV-G", "value": "but not HIV-luc(VSV-G)"}
    ]},
    {"molecule": "Cl.N", "note": "[ammonium chloride]", "values": [
      {"measurement": "effect on infection mediated by S protein", "setting": "SARS-CoV S protein [1]", "value": "dramatically reduced infection"},
      {"measurement": "effect on infection mediated by VSV-G", "setting": "VSV-G", "value": "dramatically reduced infection"}
    ]},
    {"molecule": "N=C(N)c1ccccc1", "note": "[benzamidine]", "values": [
      {"measurement": "Ki", "setting": "thrombin", "value": "300 to 1000", "unit": "µM"}
    ]},
    {"molecule": "CC1=NN(c2ccccc2)C(=O)C1=NNc1c(Br)cc(Br)cc1Br", "note": "[compound 1, 5-methyl-2-phenyl-4-[(2,4,6-tribromo-phenyl)-hydrazono]-2,4-dihydro-pyrazol-3-one]", "values": [
      {"measurement": "substrate conversion in microarray screen", "setting": "caspase 6 [2]", "value": "low substrate conversion"},
      {"measurement": "substrate conversion in microarray screen", "setting": "caspase 2 [3]", "value": "reduced substrate conversion"},
      {"measurement": "substrate conversion in microarray screen", "setting": "caspase 4 [4]", "value": "reduced substrate conversion"},
      {"measurement": "inhibition", "setting": "caspase 2 [5]", "value": 100, "unit": "%"},
      {"measurement": "IC50", "setting": "caspase 2 [5]; IC50 against caspase 2", "value": "~5000", "unit": "µM"},
      {"measurement": "IC50", "setting": "caspase 2 [5]; [9]", "value": "500 to 5000", "unit": "µM"},
      {"measurement": "inhibition", "setting": "caspase 4 [6]", "value": 100, "unit": "%"},
      {"measurement": "IC50", "setting": "caspase 4 [6]; IC50 against caspase 4", "value": "~500", "unit": "µM"},
      {"measurement": "IC50", "setting": "caspase 4 [6]; [9]", "value": "500 to 5000", "unit": "µM"},
      {"measurement": "inhibition", "setting": "caspase 6 [7]", "value": 100, "unit": "%"},
      {"measurement": "IC50", "setting": "caspase 6 [7]; IC50 against caspase 6", "value": "~5000", "unit": "µM"},
      {"measurement": "IC50", "setting": "caspase 6 [7]; [9]", "value": "500 to 5000", "unit": "µM"}
    ]},
    {"molecule": "CC(=O)N[C@@H](CC(C)C)C(=O)N[C@@H](CC(C)C)C(=O)N[C@H](C=O)CCCNC(=N)N", "note": "[leupeptin]", "values": [
      {"measurement": "concentration necessary to achieve 95% inhibition of S protein-mediated entry", "setting": "SARS-CoV S protein [1]", "value": 100, "unit": "µg/mL"},
      {"measurement": "inhibition at 10 µg/mL", "setting": "SARS-CoV S protein [1]; Severe acute respiratory syndrome coronavirus, HEK-293T, 10 μg/ml, read-out: inhibition of entry mediated by SARS-CoV S protein", "value": "> 95", "unit": "%"},
      {"measurement": "effect on infection mediated by VSV-G", "setting": "VSV-G", "value": "not inhibited"},
      {"measurement": "effect on infection mediated by MLV-Amphotropic Env", "setting": "MLV-Amphotropic Env", "value": "not inhibited"},
      {"measurement": "effect on SARS-CoV replication", "setting": "SARS-CoV (strain Tor2)", "value": "little or no effect"},
      {"measurement": "effect on infection by replication-competent SARS-CoV", "setting": "SARS-CoV (strain Tor2)", "value": "inhibited"},
      {"measurement": "effect on S protein-mediated intervirion fusion (luciferase activity)", "setting": "SARS-CoV S protein [8]", "value": "S protein-mediated fusion was lost"},
      {"measurement": "effect on ASLV-A Env mediated infection", "setting": "ASLV-A Env", "value": "no effect"},
      {"measurement": "hit in cathepsin L microarray screen", "setting": "human cathepsin L", "value": "inhibitors and hits"}
    ]},
    {"molecule": "CC(C)CC(=O)N[C@H](C(=O)N[C@H](C(=O)N[C@@H](CC(C)C)[C@@H](O)CC(=O)N[C@@H](C)C(=O)N[C@@H](CC(C)C)[C@@H](O)CC(=O)O)C(C)C)C(C)C", "note": "[pepstatin] (Isovaleryl-VV[Sta]A[Sta]-OH)", "values": [
      {"measurement": "effect on infection by pseudotypes bearing S protein", "setting": "SARS-CoV S protein [1]", "value": "had no effect"},
      {"measurement": "effect on VSV-G mediated infection", "setting": "VSV-G", "value": "had no effect"}
    ]},
    {"molecule": "aprotinin", "values": [
      {"measurement": "effect on infection by pseudotypes bearing S protein", "setting": "SARS-CoV S protein [1]", "value": "had no effect"}
    ]}
  ]
}
